We go through 18 compounds from US10077261B2, “Imidazolin-5-one derivative useful as FASN inhibitors for the treatment of cancer” (Janssen Pharmaceutica NV, priority 2012, dated 2018).

The inhibition is the drop in the measured response relative to a control, in per cent.

Read-outs that look alike come from different tables or passages of the source. A value given as a limit tells only on which side of the number the result lay.

For the assay, the target named is T1, hFASN enzyme (full length) (Homo sapiens, UniProt P49327).
T1 construct: 10 μL hFASN enzyme (full length, 300 ng, purified in house); made in house
The experiment in a line: Fatty Acid Synthase (FASN) inhibition scintillation proximity assay. It is filed as biochemical. The note with it: for IC50: read-out: Human FASN pIC50 (converted). The method, then: In this assay, inhibition of FASN activity is measured using ^3H-acetyl-CoA and malonyl-CoA as substrates. ^3H-Acetyl CoA is converted to ^3H-palmitate through a series of reactions by the FASN protein, which contains 7 functional domains and carries out 7 enzymatic reactions to ultimately produce ^3H-palmitate. The assay principle is based upon the fact that ^3H-acetyl-CoA is hydrophilic and the end product, ^3H-palmitate is hydrophobic.
10 μL assay buffer (100 mM KH2PO4 pH 7.5, 1 mM DTT) (20 μL in blanks) was added to a 384-well white optiplate plate (Perkin Elmer). 0.9 μL test compound (at concentrations of 30 μM, 10 μM, 3 μM, 1 μM, 0.30 μM, 0.10 μM, 0.03 μM and 0.01 μM)/DMSO and 10 μL hFASN enzyme (full length, 300 ng, purified in house) or 10 μL assay buffer was added to the wells. […] The reaction was stopped by adding 20 μL Streptavidin coupled imaging beads (25 mg/ml). After incubation for 30 minutes at room temperature in the dark, the 384 well plate was centrifuged at 1500 rpm for 3 minutes and was measured after at least 24 hrs by the LEADseeker™, measuring emission using a 610±20 nm pass filter.
where mLC and mHC were the means of the low control wells and high control wells on the plate, after manual exclusion of outliers. A plot of Controlmin versus test compound concentration was fitted to a 4-parameter logistic curve using a non-linear least squares regression method.
(In general: In a scintillation proximity assay essentially only radioactivity close to the scintillant gives light.)

Where [1] appears, read: read-out: Human FASN % inhibition @ 10 μM, 10 μM test compound.

T1 sequence (P49327 whole entry): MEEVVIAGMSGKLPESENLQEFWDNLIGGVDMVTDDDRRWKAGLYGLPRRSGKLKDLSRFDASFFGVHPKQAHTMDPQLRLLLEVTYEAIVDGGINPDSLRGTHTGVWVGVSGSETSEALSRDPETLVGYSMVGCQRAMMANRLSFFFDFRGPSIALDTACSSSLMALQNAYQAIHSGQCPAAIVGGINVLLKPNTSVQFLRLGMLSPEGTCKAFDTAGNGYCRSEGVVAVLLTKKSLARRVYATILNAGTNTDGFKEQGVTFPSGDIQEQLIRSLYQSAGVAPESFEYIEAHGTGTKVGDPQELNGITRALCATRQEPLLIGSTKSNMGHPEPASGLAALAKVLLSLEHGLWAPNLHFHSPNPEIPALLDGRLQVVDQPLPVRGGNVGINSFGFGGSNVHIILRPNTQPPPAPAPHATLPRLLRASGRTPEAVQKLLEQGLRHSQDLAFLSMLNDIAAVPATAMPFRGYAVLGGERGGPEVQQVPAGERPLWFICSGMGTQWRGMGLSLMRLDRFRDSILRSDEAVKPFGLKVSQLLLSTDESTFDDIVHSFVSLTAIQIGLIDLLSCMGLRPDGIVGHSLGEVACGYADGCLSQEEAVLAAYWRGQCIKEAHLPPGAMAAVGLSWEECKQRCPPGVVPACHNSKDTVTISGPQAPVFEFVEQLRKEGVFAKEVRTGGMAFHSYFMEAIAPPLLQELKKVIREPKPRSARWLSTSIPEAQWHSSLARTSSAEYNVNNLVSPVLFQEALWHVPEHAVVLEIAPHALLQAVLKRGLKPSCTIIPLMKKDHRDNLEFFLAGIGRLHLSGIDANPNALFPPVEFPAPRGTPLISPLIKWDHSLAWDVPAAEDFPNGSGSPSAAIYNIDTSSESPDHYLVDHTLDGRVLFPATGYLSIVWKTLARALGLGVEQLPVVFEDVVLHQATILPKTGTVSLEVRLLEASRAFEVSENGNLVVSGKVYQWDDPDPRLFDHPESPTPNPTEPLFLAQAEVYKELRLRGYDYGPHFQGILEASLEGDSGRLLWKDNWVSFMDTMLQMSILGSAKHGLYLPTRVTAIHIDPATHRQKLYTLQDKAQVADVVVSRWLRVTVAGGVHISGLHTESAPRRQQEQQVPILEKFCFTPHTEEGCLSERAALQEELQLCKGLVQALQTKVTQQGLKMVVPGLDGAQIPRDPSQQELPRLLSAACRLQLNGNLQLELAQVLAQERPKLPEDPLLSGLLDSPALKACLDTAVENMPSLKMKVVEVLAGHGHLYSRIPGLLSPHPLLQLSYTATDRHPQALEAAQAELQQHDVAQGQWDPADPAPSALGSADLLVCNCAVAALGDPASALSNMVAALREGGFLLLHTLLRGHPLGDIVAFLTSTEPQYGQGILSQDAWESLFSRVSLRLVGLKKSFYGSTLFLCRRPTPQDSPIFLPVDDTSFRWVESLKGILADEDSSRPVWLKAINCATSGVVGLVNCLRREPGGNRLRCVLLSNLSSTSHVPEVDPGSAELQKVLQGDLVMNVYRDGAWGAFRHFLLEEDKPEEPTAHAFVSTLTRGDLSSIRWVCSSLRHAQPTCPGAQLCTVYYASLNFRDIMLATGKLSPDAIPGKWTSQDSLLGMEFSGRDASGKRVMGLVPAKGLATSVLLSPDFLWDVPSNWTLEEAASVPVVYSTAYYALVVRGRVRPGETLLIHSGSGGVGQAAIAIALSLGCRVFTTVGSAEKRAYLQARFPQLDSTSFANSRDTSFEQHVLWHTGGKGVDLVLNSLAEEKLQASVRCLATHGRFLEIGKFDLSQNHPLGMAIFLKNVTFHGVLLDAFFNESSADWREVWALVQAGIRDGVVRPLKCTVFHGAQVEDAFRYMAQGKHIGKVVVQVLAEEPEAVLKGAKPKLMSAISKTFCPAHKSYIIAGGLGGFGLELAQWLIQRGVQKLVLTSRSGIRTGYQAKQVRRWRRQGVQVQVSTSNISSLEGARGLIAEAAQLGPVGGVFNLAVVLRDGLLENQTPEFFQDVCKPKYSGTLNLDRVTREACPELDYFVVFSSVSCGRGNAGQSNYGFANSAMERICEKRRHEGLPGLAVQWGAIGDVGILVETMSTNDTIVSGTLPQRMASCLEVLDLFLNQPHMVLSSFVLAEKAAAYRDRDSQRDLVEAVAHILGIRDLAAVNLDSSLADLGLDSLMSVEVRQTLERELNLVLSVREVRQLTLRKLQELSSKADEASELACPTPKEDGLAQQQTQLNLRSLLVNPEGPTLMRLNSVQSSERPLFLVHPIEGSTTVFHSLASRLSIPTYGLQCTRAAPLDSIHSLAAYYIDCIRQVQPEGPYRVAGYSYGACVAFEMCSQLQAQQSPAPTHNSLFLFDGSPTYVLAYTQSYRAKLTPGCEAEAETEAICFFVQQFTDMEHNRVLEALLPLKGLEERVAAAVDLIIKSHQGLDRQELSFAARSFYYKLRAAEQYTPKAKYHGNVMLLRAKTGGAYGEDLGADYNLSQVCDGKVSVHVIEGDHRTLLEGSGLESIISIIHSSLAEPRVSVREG

In the case of `COc1ccccc1-c1ccc(C2=NC3(CC3)C(=O)N2CC2CCN(C(=O)C3CC3)CC2)cc1` [compound 98, 6-{[1-(Cyclopropylcarbonyl)piperidin-4-yl]methyl}-5-(2′-methoxybiphenyl-4-yl)-4,6-diazaspiro[2.4]hept-4-en-7-one], the IC50 was more than 10 µM. Besides, under setting [1], the inhibition at 10 µM came to 35.1%.

In the case of `COc1ccc(-c2ccc(C3=NC4(CC4)C(=O)N3CC3CCN(C(=O)C4CC4)CC3)cc2)cc1` [compound 99], the IC50 is 4.68 µM. In addition, under setting [1], the inhibition at 10 µM was determined as 61.4%.

With `O=C(C1CC1)N1CC[C@@H](CN2C(=O)C3(CC3)N=C2c2ccc(-c3ccc(C(F)(F)F)cc3)cc2)C1` [compound 104, 6-{[(3R)-1-(Cyclopropylcarbonyl)pyrrolidin-3-yl]methyl}-5-[4′-(trifluoromethyl)biphenyl-4-yl]-4,6-diazaspiro[2.4]hept-4-en-7-one], the IC50 was 3.24 µM. Moreover, the inhibition at 10 µM under setting [1] was 71.7%.

Consider `O=C(C1CC1)N1CCC(CN2C(=O)C3(CC3)N=C2c2ccc(-c3ccc(C(F)(F)F)cc3)cc2)CC1` [compound 107, 6-{[1-(Cyclopropylcarbonyl)piperidin-4-yl]methyl}-5-[4′-(trifluoromethyl)biphenyl-4-yl]-4,6-diazaspiro[2.4]hept-4-en-7-one], for which the IC50 is more than 10 µM. Under setting [1], the inhibition at 10 µM amounted to 10.6%.

For the compound `O=C(C1CC1)N1CCC(CN2C(=O)C3(CC3)N=C2c2ccc(-c3cccc(O)c3)cc2)CC1` [compound 108, 6-{[1-(Cyclopropylcarbonyl)piperidin-4-yl]methyl}-5-(3′-hydroxybiphenyl-4-yl)-4,6-diazaspiro[2.4]hept-4-en-7-one], the IC50 is 1.51 µM. Also, under setting [1], the inhibition at 10 µM is 83.8%.

As to `O=C(C1CC1)N1CCC(CN2C(=O)C3(CC3)N=C2c2ccc(-c3ccc(Cl)cc3)cc2)CC1` [compound 109, 5-(4′-Chlorobiphenyl-4-yl)-6-{[1-(cyclopropylcarbonyl)piperidin-4-yl]methyl}-4,6-diazaspiro[2.4]hept-4-en-7-one], the IC50 was 5.13 µM. Further, the inhibition at 10 µM under setting [1] was 62.1%.

With `O=C(C1CC1)N1CCC(CN2C(=O)C3(CC3)N=C2c2ccc(-c3ccc(F)cc3)cc2)CC1` [compound 110, 6-{[1-(Cyclopropylcarbonyl)piperidin-4-yl]methyl}-5-(4′-fluorobiphenyl-4-yl)-diazaspiro[2.4]hept-4-en-7-one], the IC50 is more than 10 µM. For the same compound, the inhibition at 10 µM (read-out: Human FASN % inhibition @ 10 μM) came to 32.6%.

With `Cc1cccc(-c2ccc(C3=NC4(CC4)C(=O)N3CC3CCN(C(=O)C4CC4)CC3)cc2)c1` [compound 111, 6-{[1-(Cyclopropylcarbonyl)piperidin-4-yl]methyl}-5-(3′-methylbiphenyl-4-yl)-4,6-diazaspiro[2.4]hept-4-en-7-one], the IC50 was 4.37 µM. The inhibition at 10 µM under setting [1] is 62.2%.

For the compound `N#Cc1cccc(-c2ccc(C3=NC4(CC4)C(=O)N3C[C@@H]3CCN(C(=O)C4CC4)C3)cc2)c1` [compound 123, 4′-(6-{[(3R)-1-(Cyclopropylcarbonyl)pyrrolidin-3-yl]methyl}-7-oxo-4,6-diazaspiro[2.4]hept-4-en-5-yl)biphenyl-3-carbonitrile], the IC50 is 1.26 µM. Also, the inhibition at 10 µM under setting [1] was 81.5%.

In the case of `O=C(C1CC1)N1CC[C@@H](CN2C(=O)C3(CC3)N=C2c2ccc(-c3ccc(OC(F)(F)F)cc3)cc2)C1` [compound 125, 6-{[(3R)-1-(Cyclopropylcarbonyl)pyrrolidin-3-yl]methyl}-5-[4′-(trifluoromethoxy)biphenyl-4-yl]-4,6-diazaspiro[2.4]hept-4-en-7-one], the IC50 was 3.98 µM. Also, under setting [1], the inhibition at 10 µM was 64.6%.

Regarding `CC(C)C(=O)N1CCC2(CC1)N=C(c1ccc(-c3ccc4occc4c3)cc1)N(CC1CN(C(=O)C3CC3)C1)C2=O` [compound 129, 2-[4-(1-Benzofuran-5-yl)phenyl]-3-{[1-(cyclopropylcarbonyl)azetidin-3-yl]methyl}-8-(2-methylpropanoyl)-1,3,8-triazaspiro[4.5]dec-1-en-4-one], the IC50 is 1.17 µM. The inhibition at 10 µM under setting [1] came out at 90.7%.

As to `O=C(C1CC1)N1CC(CN2C(=O)C3(CCNCC3)N=C2c2ccc(-c3ccc4occc4c3)cc2)C1` [compound 130, 2-[4-(1-Benzofuran-5-yl)phenyl]-3-{[1-(cyclopropylcarbonyl)azetidin-3-yl]methyl}-1,3,8-triazaspiro[4.5]dec-1-en-4-one], the IC50 is 3.8 µM. Further, under setting [1], the inhibition at 10 µM is 74%.

Take `Cn1ncc2cc(-c3ccc(C4=NC5(CCNCC5)C(=O)N4CC4CN(C(=O)C5CC5)C4)cc3)ccc21` [compound 131, 3-{[1-(Cyclopropylcarbonyl)azetidin-3-yl]methyl}-2-[4-(1-methyl-1H-indazol-5-yl)phenyl]-1,3,8-triazaspiro[4.5]dec-1-en-4-one]: the IC50 was 8.91 µM. Moreover, under setting [1], the inhibition at 10 µM was found to be 52.1%.

In the case of `O=C(C1CC1)N1CC(CN2C(=O)C3(CCNCC3)N=C2c2ccc(-c3ccc4cnccc4c3)cc2)C1` [compound 132, 3-{[1-(Cyclopropylcarbonyl)azetidin-3-yl]methyl}-2-(4-isoquinolin-6-ylphenyl)-1,3,8-triazaspiro[4.5]dec-1-en-4-one], the IC50 was 1.7 µM. Besides, the inhibition at 10 µM under setting [1] is 83.7%.

For the compound `CC(C)C(=O)N1CCC2(CC1)N=C(c1ccc(-c3ccc4c(cnn4C)c3)cc1)N(CC1CN(C(=O)C3CC3)C1)C2=O` [compound 135, 3-{[1-(Cyclopropylcarbonyl)azetidin-3-yl]methyl}-2-[4-(1-methyl-1H-indazol-5-yl)phenyl]-8-(2-methylpropanoyl)-1,3,8-triazaspiro[4.5]dec-1-en-4-one], the IC50 is 2.45 µM. For the same compound, the inhibition at 10 µM under setting [1] amounted to 78.9%.

Regarding `CN(C)CC(=O)N1CCC2(CC1)N=C(c1ccc(-c3ccc4c(cnn4C)c3)cc1)N(CC1CN(C(=O)C3CC3)C1)C2=O` [compound 136, 3-{[1-(Cyclopropylcarbonyl)azetidin-3-yl]methyl}-8-(N,N-dimethylglycyl)-2-[4-(1-methyl-1H-indazol-5-yl)phenyl]-1,3,8-triazaspiro[4.5]dec-1-en-4-one], the IC50 was 2.95 µM. Moreover, the inhibition at 10 µM under setting [1] was 77.7%.

As to `CC(C)C(=O)N1CCC2(CC1)N=C(c1ccc(-c3ccc4c(cnn4C)c3)cc1)N(C[C@@H]1CCN(C(=O)C3CC3)C1)C2=O` [compound 139, (R)-3-((1-(cyclopropanecarbonyl)pyrrolidin-3-yl)methyl)-8-isobutyryl-2-(4-(1-methyl-1H-indazol-5-yl)phenyl)-1,3,8-triazaspiro[4.5]dec-1-en-4-one], the IC50 was 0.174 µM. Under setting [1], the inhibition at 10 µM came to 112%.

For the compound `Cn1ncc2cc(-c3ccc(C4=NC5(CCN(C(=O)C6CC6)CC5)C(=O)N4C[C@@H]4CCN(C(=O)C5CC5)C4)cc3)ccc21` [compound 140, 8-(Cyclopropylcarbonyl)-3-{[(3R)-1-(cyclopropylcarbonyl)pyrrolidin-3-yl]methyl}-2-[4-(1-methyl-1H-indazol-5-yl)phenyl]-1,3,8-triazaspiro[4.5]dec-1-en-4-one], the IC50 was 0.224 µM. Also, the inhibition at 10 µM under setting [1] came to 114%.
